# According to article PMC8466755, “GPCR Pharmacological Profiling of Aaptamine from the Philippine Sponge Stylissa sp. Extends Its Therapeutic Potential for Noncommunicable Diseases” (Molecules, 2021):
# Entries after “also recorded” stand apart in the source; their conditions may differ.
# How the values were obtained:
# [1] = system: HCT116 colon cancer cells; experiment: MTT cell viability assay, HCT116; type: cell-based, human
# Protocol: Aaptamine was tested against HCT116 colon cancer cells and cell viability was assessed after 48 h using an MTT (3-(4,5-dimethyl dimethylthiazol-2-yl)-2,5-diphenyltetrazolium bromide) assay. […] The results agreed with the findings of Kobayashi et al. that aaptamine at concentrations of 20–50 µM increased the expression of the cyclin-dependent kinase inhibitor p21, a protein known to act as a negative regulator of cell cycle progression, thus preventing cell proliferation. […] To alternatively explain the activity of aaptamine, we tested the compound for its ability to inhibit the chymotrypsin-like activity of a purified 20S proteasome from human erythrocytes. Proteasome inhibitors are validated anticancer agents. Aaptamine was able to inhibit the enzyme activity by 41% at 50 µM (Figure 2b). […] In our study, aaptamine had similar IC50 values for cancer cell growth inhibition and proteasome inhibition in vitro (~50 µM).
# Human colon carcinoma cells (HCT116) were cultured in Dulbecco’s modified Eagle’s medium (DMEM, Invitrogen, MA, USA), supplemented with 10% fetal bovine serum (FBS, Sigma-Aldrich, MO, USA) and 1% antibiotic-antimycotic (Invitrogen, MA, USA) humidified at 37 °C with 5% CO2. […] Detection was performed using a SpectraMax M5 spectrometer (Molecular Devices, CA, USA) at 570 nm and cell viability was calculated and expressed relative to the vehicle control.
# DRD4 = molecular target: T1, DRD4 (Homo sapiens, UniProt P21917); experiment: PathHunter β-arrestin assay, antagonist mode; type: cell-based
# T1 sequence (P21917 1-419): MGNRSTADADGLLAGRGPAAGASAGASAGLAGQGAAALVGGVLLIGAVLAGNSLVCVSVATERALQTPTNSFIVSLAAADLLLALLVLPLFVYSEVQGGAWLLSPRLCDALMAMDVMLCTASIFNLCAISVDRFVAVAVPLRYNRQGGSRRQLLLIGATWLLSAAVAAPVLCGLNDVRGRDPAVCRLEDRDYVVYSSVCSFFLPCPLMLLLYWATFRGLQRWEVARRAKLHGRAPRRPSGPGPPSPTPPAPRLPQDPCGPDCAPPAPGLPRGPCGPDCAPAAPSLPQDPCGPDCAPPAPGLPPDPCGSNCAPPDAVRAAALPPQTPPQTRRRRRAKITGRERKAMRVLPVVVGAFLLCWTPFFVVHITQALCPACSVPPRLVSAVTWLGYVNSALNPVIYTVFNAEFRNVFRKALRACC
# Protocol: The assay was performed by DiscoverX Corporation (Fremont, CA) using PathHunter β -arrestin enzyme fragment complementation (EFC) technology, in a similar way to that described elsewhere [35, 36]. The PathHunter cell lines were taken from freezer stocks according to standard procedures. A total of 20 µL of cells were seeded into white 384-well plates and incubated at 37 °C for the appropriate time prior to testing.
# In this assay format, the standard agonist was added at an EC80 concentration. To the plate that contained the cells, 5 µL of the 5X sample was added and incubated for 30 min at 37 °C or room temperature. After the incubation period, 5 µL of the 6X EC80 agonist in an assay buffer was added to the cells and incubated for additional 90 or 180 min at 37 °C or room temperature.
# (§1) The assays were performed at 10-point concentrations using three-fold serial dilutions in duplicate. For all the assay formats, the final assay vehicle concentration was 1%.
# CXCR7 = CXCR7 (Homo sapiens, UniProt P25106); experiment: PathHunter β-arrestin assay, agonist mode; type: cell-based
# CXCR7, sequence (P25106 whole entry): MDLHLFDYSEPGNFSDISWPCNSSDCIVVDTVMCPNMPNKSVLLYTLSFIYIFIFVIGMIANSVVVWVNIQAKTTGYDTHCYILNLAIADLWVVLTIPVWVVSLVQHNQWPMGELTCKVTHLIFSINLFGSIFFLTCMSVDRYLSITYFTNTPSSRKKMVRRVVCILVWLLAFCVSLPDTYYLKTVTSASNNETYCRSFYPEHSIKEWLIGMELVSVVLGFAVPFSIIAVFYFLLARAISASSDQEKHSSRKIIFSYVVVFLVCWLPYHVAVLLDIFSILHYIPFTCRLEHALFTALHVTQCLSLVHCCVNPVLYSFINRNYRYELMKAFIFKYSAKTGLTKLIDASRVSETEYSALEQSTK
# Protocol: as §1
# SSTR1 = SSTR1 (Homo sapiens, UniProt P30872); experiment: PathHunter β-arrestin assay, positive allosteric modulation (PAM) mode; type: cell-based; conditions: dose-response, control agonist at EC20
# SSTR1, sequence (P30872 whole entry): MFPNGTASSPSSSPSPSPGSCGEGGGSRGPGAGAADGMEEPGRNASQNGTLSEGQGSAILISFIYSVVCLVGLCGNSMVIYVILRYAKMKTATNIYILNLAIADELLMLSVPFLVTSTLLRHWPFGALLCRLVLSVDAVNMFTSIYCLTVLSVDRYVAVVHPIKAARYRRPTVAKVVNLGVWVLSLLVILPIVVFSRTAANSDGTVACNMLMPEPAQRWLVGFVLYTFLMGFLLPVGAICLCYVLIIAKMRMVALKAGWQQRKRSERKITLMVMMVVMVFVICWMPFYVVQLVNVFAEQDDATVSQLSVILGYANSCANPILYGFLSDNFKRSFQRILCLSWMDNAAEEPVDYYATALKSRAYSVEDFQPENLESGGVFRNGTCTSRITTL
# Protocol: as §1
# For PAM assays, the cells were preincubated with the sample followed by agonist induction at the EC20 concentration. To the cells, 5 µL of 5X sample was added and incubated for 30 min at 37 °C or room temperature. Following the incubation period, 5 µL of the 6X EC20 agonist prepared in an assay buffer was added to the cells and incubated for 90 or 180 min at 37 °C or room temperature.
# [2] = molecular target: opioid receptor delta 1 (OPRD1) (Homo sapiens, UniProt P41143); experiment: PathHunter β-arrestin assay, agonist mode; type: cell-based; conditions: 20 µM primary screen
# opioid receptor delta 1 (OPRD1), sequence (P41143 whole entry, the tested form may be a part): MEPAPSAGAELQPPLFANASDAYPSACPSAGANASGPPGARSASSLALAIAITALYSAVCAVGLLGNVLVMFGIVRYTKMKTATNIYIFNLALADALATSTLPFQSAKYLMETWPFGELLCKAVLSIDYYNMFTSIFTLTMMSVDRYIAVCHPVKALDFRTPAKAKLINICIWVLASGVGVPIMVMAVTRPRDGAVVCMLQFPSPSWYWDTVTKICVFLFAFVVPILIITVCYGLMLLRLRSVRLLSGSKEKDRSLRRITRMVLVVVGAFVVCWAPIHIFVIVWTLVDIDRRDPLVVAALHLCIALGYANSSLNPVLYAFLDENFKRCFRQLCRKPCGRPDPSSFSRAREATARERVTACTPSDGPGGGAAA
# Protocol: Aaptamine (20 µM) was profiled in gpcrMAX panel biosensor assays (in agonist and antagonist modes) against a panel of 168 GPCRs. The assay was performed by DiscoverX Corporation (Fremont, CA) using PathHunter β -arrestin enzyme fragment complementation (EFC) technology, in a similar way to that described elsewhere. The PathHunter cell lines were taken from freezer stocks according to standard procedures. A total of 20 µL of cells were seeded into white 384-well plates and incubated at 37 °C for the appropriate time prior to testing.
# For agonist determination, aaptamine was incubated with PathHunter cell lines to induce a response. To increase the concentration, intermediate dilution from 20 µM of aaptamine was performed to generate a 5X sample in an assay buffer. Then, 5 µL of 5X sample was added to the plate with PathHunter cells and incubated for 90 or 180 min at 37 °C or room temperature. The percentage activity of aaptamine was calculated following this formula: % activity = 100% × (mean RLU of test sample − mean RLU of vehicle control)/(mean MAX control ligand − mean RLU of vehicle control).
# proteasome = system: proteasome; design: method as in PMID 20451377; conditions: read-out: proteasome inhibitory activity IC50; cited from earlier work
# p21 = system: p21; design: method as in doi:10.1016/j.tetlet.2007.01.113; conditions: cited from earlier work
# [3] = system: pdr1 Δ pdr3 Δ S. cerevisiae; experiment: Yeast growth inhibition assay, double deletion strain; conditions: up to 50 µM, 24 h, PDR-attenuated strain
# Protocol: The yeast S. cerevisiae (BY4741) cell culture was prepared by inoculating the microorganism in a 250 mL Erlenmeyer flask containing 50 mL YPD + HEPES medium, followed by incubation at 30 °C for 24–48 h. The assay was performed in a 96-well format. Each well except for the blank contained 100 μL of cell suspension with a final cell density of 5 × 10^4 cells/mL. […] The absorbance was read after a 24 h incubation. […] Nystatin was used as the positive control and DMSO served as the negative control. Each treatment was done in triplicate.
structure (smiles),measurement,setting,value
COc1cc2ccnc3c2c(c1OC)NC=C3 [aaptamine],reduction of viability of HCT116,"[1]; 50 µM (highest concentration tested), 48 h, MTT",50%
same,IC50,"[1]; Homo sapiens, HCT-116, HCT116, 48 h, read-out: IC50 cancer cell growth inhibition",~50 µM
same,Emax,"DRD4; dose-response analysis, read-out: Dose-Response Maximal Response, % Inhibition",94.5%
same,IC50,"DRD4; dose-response, antagonist mode",6.9 µM
same,selectivity for DRD4 among the dopamine receptors,"DRD4; versus DRD2S and DRD2L, from IC50 values",3.7- to 5.6 fold
same,"Dose-Response Maximal Response, % Activation",CXCR7; dose-response analysis,122.57%
same,Emax,"CXCR7; dose-response analysis, read-out: Dose-Response Maximal Response, % Activation",123%
same,EC50,"CXCR7; dose-response, agonist mode",6.2 µM
same,validation of potentiator hit under PAM conditions,SSTR1,false positives; also recorded: did not validate
same,agonistic activity in the β-arrestin assay,[2],did not demonstrate significant agonistic activity
same,IC50,proteasome,19 µM
same,concentrations that increased the expression of p21,p21,20 to 50 µM
same,growth inhibitory activity,[3],inactive
